One series has as its system RSV. The experiment in a line: In vivo pharmacodynamic assay: mouse RSV infection model, lung viral load by plaque assay. Also noted: species or system BALB/c mice. Conditions: lung tissue, Day 5. How it is done: The compound of the present invention was dissolved in a suitable solvent to form a clear solution or suspension for intragastric administration. • Animals: BALB/c mice, 6-weeks old, female. • Establishment of in vivo RSV infection model: Mice were inoculated intranasally with the virus on Day 0, with an inoculation dose of 3.5 × 10^6 p.f.u. per mouse. • Grouping of animals: Animals were divided into a vehicle control group and an administration group, with 5 animals in each group.
Administration mode and dosage: The compound of the present invention was administered intragastrically at 100 mg/kg or 50 mg/kg, or the vehicle used for the compound of the present invention was administered intragastrically. The administration volume was 10 mL/kg.
Experimental procedure: Mice were inoculated intranasally with the virus on Day 0 at an inoculation dose of 3.5 × 10^6 p.f.u. per mouse. Mice were continuously treated with the compound of the present invention from Day 0 to Day 4 for 5 days at a dose of 50 mg/kg, once daily, via intragastric administration, with an administration volume of 10 mL/kg; the first administration was conducted 1 hour before virus inoculation. Alternatively, mice were treated once with the compound of the present invention on Day 0 at a dose of 100 mg/kg, via intragastric administration, with an administration volume of 10 mL/kg; the first administration was conducted 1 hour before virus inoculation. On Day 5, mice were euthanized, and lung tissue samples were collected. Animals were observed daily from Day 0 to Day 5, and the body weight, health status, and survival status were recorded.
Sample processing: After lungs were collected, they were quickly frozen in the HBSS* solution at a 10-fold weight-to-volume ratio (w:v (g:mL) = 1:10), and stored in a -80°C refrigerator for plaque assay to detect viral load.
Sample detection: Viral load in lung tissues was detected by plaque assay. […]

Series [1] is described as follows: Pharmacokinetic experiment in mice after intragastric administration (plasma and lung tissue, LC/MS/MS). It counts as in vivo. Conditions: ICR, mouse, intragastric administration at 20 mg/kg; for concentration at 6 h: lung, oral, read-out: Lung tissue drug concentration at 6 h; for half-life: plasma, po. How it is done: The compounds of the present invention for intragastric administration were dissolved in a suitable solvent to form a clear solution or suspension.
Administration mode and dosage: The compounds of the present invention were administered intragastrically at 10 mg/kg or 20 mg/kg.
Number of animals: 3 ICR mice per group for intragastric administration.
Sample collection: For the intragastric administration group, 100 µL of blood was collected (using pre-heparinized 100 µL Capillary Blood Collection Tubes) from the orbital vein of mice at 0.25 h, 0.5 h, 1 h, 2 h, 4 h, and 6 h after administration and placed in heparin sodium anticoagulant tubes. Mice plasma samples were obtained by centrifugation at 3000 g for 10 minutes within 2 hours. For the intragastric administration group, clean blood was collected at 6-hour time point and then lung tissues were collected.
Sample treatment: Plasma and lung tissue homogenates were subjected to protein precipitation with methanol at a certain ratio, and the supernatant was taken and diluted with 50% methanol-water at a certain ratio for sample loading.
Sample detection: The drug concentration in plasma was detected by the LC/MS/MS method, and the drug-time curve was plotted. Pharmacokinetic parameters (such as T1/2(h)/AUC0-t) were calculated by non-compartmental model statistical moments to describe the pharmacokinetic behavior of the compounds in mice after administration.
Data processing: Pharmacokinetic parameters were calculated by WinNonlin.

For another series, the system named is RSV strain A2. The experiment in a line: Antiviral detection test against RSV strain A2 based on ELISA method (Hep-2 cells). It counts as cell-based, Respiratory Syncytial Virus. Conditions: RSV A2 virus strain, Hep-2 cells, ELISA OD450. How it is done:
Test Example 1: Antiviral detection test of small molecules against RSV strain A2 based on ELISA method
• Source of cell line: Nanjing Kebai Biotechnology Co., Ltd. • Cell type: human laryngeal carcinoma epithelial cells Hep-2
• 96-well culture plate (Cat.No. 3610, Corning Costar); • Fetal bovine serum (Cat.No. 10099-141, GIBCO); • DMEM medium (Cat.No. 11995500BT, GIBCO); • Envision 2104 microplate reader.
• 1. Day 1: The Hep-2 cells were seeded into a 96-well plate at a density of 1×10^4 cells/well; • 2. Day 2: • A. Compound dilution: The compound in the first well was diluted to 9 µM, and 3-fold gradient dilution was performed, with a total of 10 gradients; • B. The Hep-2 cell plate prepared on Day 1 was taken out from the incubator, the supernatant was discarded, and 100 PFU/well/50 µL of the RSV A2 virus was added to each well. The plate was stood at 37°C in a 5% CO2 incubator for 2 hours, the supernatant was aspirated and discarded, and then 100 µL of the gradient-diluted compound or DMEM maintenance medium containing 2% FBS was added to each well; • 3. Day 5: • A. Add fixative: The gradient-diluted compound or medium was discarded from the wells, and 100 µL/well of fixative (4% paraformaldehyde) was added. The plate was stood at room temperature for 10 minutes, and then was washed once with 250 µL PBS; • B. 100 µL/well of a blocking solution was added, and the plate was incubated at 37°C in a 5% CO2 incubator for 30 minutes; • C. After incubation, the detection antibody (Anti RSV Fpro) was added at 0.3 µg/50 µL/well (6 µg/mL), and the plate was incubated at 37°C in a 5% CO2 incubator for 1 hour; • D. After incubation, the HRP secondary antibody was added (diluted 10,000-fold with 0.2% BSA), and the plate was incubated at 37°C in a 5% CO2 incubator for 1 hour; • E. After incubation, the wells were washed for 4 times with PBST, 250 µL/well, each washing was allowed to stand for 5 minutes, and the liquid in the wells was shaken off after completion of the washing; • F. 100 µL/well of a development solution was added, the plate was incubated at room temperature in the dark for 20 minutes, and 50 µL/well of a reaction termination solution was added. The plate was tapped gently to mix the solutions, and the absorbance at 450 nm was measured using the microplate reader. • 4. Data analysis • Inhibition rate of the compound against the virus = 100% - (SC - CC)/(VC - CC) × 100% • SC: OD450 value of the sample (cells + test compound + virus) • CC: OD450 value of the normal growing cell control (cells) • VC: OD450 value of the virus growth control (cells + virus)
The software Graphpad Prism 6 was used, and the calculation formula XY-analysis/Nonlinear regression (curve fit)/Dose response-Inhibition/log (inhibition) vs. response-Variable slope (four parameters) was adopted to fit the IC50 curve and calculate the IC50 value.

In series [2] the target is human potassium ion channel (hERG) (Homo sapiens, UniProt Q12809).
Description: Experimental equipment: Electrophysiological detection was performed using the fully automated patch clamp QPatch 48 X (Sophion) device.
Experimental procedure: The prepared cells were placed in the centrifuge chambers of the QPatch workbench, the cells were washed by the centrifugation/suspension method for multiple times to replace the cell culture medium with an extracellular solution. One MTP-96 plate was taken out and placed at the MTP source position. The QPlate chip was taken out and then the QPlate was placed at the QPlate source position. The robotic arm scanned the MTP-96 plate and the barcodes of the QPlate chip, and grabbed them to the measurement station. Intracellular and extracellular solutions were aspirated from the liquid pool and added to the intracellular solution pool and the cell and test substance pool of the QPlate chip, respectively. At the measurement station, all measurement sites on the QPlate underwent initial quality control. […] The current detected in each cell in the extracellular solution without the compound was used as its own control group, and the detection was independently repeated on two cells. […]
Data processing: The IC50 values were calculated using GraphPad Prism software.

The structures appear in SMILES notation.

Chain of human potassium ion channel (hERG) (Q12809 whole entry): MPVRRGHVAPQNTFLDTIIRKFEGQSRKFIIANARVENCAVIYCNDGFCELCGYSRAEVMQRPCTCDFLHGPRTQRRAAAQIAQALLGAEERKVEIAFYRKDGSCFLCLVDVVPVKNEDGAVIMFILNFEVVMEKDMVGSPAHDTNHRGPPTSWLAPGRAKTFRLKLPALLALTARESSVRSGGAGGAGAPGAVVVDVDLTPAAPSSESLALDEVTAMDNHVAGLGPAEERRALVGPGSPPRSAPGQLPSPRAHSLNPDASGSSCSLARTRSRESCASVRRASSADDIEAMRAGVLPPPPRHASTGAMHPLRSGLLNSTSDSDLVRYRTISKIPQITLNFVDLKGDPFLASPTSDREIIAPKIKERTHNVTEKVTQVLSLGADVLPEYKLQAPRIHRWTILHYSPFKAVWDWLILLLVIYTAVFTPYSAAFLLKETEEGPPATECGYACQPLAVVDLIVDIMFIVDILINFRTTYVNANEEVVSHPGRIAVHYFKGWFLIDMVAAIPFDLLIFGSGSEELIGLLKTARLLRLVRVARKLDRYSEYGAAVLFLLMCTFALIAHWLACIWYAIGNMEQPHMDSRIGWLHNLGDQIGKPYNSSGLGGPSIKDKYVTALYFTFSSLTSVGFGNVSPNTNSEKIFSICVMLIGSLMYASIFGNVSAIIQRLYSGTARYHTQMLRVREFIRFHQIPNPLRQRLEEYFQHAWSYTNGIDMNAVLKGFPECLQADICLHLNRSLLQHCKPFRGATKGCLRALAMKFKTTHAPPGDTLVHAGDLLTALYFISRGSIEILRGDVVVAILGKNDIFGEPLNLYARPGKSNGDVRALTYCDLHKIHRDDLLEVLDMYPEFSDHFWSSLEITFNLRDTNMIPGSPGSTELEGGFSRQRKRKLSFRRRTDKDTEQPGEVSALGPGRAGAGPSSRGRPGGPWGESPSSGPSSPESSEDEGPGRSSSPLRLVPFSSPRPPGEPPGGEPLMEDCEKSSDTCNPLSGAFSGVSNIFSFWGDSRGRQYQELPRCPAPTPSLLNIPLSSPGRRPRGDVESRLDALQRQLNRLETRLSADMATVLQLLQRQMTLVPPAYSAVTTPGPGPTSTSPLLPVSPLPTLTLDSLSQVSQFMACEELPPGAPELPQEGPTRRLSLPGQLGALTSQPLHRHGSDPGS

As to `Cc1ccc2nc(N3CCS(=O)(=O)c4ccccc4C3)nc(NCC3(N)COC3)c2c1` [AK0529, reference compound], the “log (RSV Viral Load) Mean” value in the series with RSV (50 mpk, BID, 5 days administration) came out at 3.06. In series [1], the concentration at 6 h is 1210 ng/g and the half-life was 1.55 h.

As for `Cc1ccc2nc(N3CCS(=O)(=NC4CC4)c4ccccc4C3)nc(N3CC[C@H](N)C3)c2c1` (stereo partly shown) [Example 4-11], the “log (RSV Viral Load) Mean” value with RSV (50 mpk, QD, 5 days administration, value is the lower limit of detection for viral load) was determined as 2.30°; in the series with RSV (100 mpk, QD, administration once), 2.48. For the same molecule, the concentration at 6 h in series [1] was 22700 ng/g. In series [1], this molecule showed a half-life of 6.91 h. Further, in the series on RSV strain A2 (human respiratory syncytial virus), the concentration for half-maximal inhibition (IC50) is less than 10 nM.

For the molecule `Cc1ccc2nc(N3CCS(=O)(=NCC4CCO4)c4ccccc4C3)nc(N3CC[C@H](N)C3)c2c1` (stereo partly shown) [Example 4-61], the “IC50 of the Compound of the present invention /AK0529 IC50” value in series [2] is listed as greater than 1. Besides, in the series on RSV strain A2, the IC50 is less than 10 nM.

The record behind these values is patent EP4745139A1, “COMPOUND FOR TREATING AND PREVENTING RESPIRATORY SYNCYTIAL VIRUS INFECTION DISEASES” (CSPC Zhongqi Pharmaceutical Technology (Shijiazhuang) Co., …, priority 2023, dated 2025).
